The source of these data is article PMC5341070, “Small molecule inhibitors block Gas6-inducible TAM activation and tumorigenicity” (Scientific Reports, 2017).

Test [1] concerns the target VEGFR2 (Homo sapiens, UniProt P35968). The test can be described thus: KINOMEscan profiling at […]. The format is binding. Set-up: gene KDR; kinase domain.
In test [2] the target is PDGFRB (Homo sapiens, UniProt P09619). Kind of test: KINOMEscan profiling at […]. Type of test: binding. Further details: gene PDGFRB; kinase domain.
Sequence of PDGFRB (P09619 600-962 limits assumed): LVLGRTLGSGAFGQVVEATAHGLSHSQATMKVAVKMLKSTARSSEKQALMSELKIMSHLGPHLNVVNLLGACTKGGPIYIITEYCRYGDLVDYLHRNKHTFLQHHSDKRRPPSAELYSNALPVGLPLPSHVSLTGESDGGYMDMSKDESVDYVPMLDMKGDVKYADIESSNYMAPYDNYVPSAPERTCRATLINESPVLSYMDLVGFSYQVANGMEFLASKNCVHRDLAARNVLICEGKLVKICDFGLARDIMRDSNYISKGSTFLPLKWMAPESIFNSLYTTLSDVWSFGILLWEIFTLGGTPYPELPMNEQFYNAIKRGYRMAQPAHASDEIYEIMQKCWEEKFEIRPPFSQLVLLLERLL
The target of test [3] is T1, Abl (Homo sapiens, UniProt P00519).
T1 construct: gene ABL1; kinase domain
T1 sequence (P00519 242-493 limits assumed): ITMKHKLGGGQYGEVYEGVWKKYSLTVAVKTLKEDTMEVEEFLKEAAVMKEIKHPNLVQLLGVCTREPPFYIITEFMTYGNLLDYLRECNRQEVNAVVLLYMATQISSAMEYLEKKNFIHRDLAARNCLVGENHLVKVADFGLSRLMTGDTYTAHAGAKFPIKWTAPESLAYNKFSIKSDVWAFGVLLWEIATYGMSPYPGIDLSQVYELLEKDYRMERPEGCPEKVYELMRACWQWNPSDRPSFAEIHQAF
The test can be described thus: KINOMEscan profiling at […]. The format is binding.

Test [4] concerns the target T2, FLT3 (Homo sapiens, UniProt P36888).
T2 construct: kinase domain
The test can be described thus: KINOMEscan profiling at […]. The format is binding.
T2 sequence (P36888 564-993 limits assumed): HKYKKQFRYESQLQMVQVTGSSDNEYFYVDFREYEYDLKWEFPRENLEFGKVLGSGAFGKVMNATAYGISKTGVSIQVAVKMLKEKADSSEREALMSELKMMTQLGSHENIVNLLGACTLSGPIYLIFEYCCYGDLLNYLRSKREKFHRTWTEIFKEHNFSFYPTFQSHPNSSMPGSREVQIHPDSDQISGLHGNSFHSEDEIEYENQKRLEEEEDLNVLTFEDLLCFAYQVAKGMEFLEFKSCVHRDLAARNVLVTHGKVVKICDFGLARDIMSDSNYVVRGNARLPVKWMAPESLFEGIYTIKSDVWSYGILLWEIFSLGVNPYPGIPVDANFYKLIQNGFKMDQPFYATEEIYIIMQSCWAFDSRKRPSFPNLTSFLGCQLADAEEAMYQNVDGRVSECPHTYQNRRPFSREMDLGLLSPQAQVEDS

Test [5] deals with AXL (Homo sapiens, UniProt P30530). Kind of test: biochemical. Further details: KINOMEscan (DiscoverX) competition binding screen of 97 human kinases, percent of control at 10 uM. Particulars: binding competition, % of control; binder. How it is done: (§1) The KINOMEscan profiling of the inhibitors were performed as per directions by the manufacturer (DiscoverX) against a panel of human protein kinases.
Target sequence in this assay (P30530 whole entry): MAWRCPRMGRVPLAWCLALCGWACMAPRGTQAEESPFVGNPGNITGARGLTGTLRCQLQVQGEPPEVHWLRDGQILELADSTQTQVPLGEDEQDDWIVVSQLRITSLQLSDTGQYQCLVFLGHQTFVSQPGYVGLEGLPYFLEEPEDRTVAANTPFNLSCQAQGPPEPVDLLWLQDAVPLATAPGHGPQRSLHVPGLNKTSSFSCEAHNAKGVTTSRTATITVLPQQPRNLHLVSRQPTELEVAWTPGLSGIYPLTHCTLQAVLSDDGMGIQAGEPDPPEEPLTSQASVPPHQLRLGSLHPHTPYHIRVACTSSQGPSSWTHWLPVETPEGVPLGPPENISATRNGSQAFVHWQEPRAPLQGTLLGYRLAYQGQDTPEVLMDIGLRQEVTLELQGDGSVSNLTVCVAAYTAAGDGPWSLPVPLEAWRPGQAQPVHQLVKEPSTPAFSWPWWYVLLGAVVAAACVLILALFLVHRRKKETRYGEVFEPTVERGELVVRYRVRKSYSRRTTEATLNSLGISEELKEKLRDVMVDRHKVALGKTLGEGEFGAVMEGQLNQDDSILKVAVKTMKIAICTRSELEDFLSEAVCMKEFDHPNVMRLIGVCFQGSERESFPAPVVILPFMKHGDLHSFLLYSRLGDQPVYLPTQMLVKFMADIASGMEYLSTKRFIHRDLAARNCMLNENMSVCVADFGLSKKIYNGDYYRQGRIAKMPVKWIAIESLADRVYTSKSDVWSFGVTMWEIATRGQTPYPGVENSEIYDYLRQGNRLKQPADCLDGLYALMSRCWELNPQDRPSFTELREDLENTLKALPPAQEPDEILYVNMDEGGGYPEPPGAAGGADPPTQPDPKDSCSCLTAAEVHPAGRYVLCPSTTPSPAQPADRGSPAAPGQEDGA

The target in test [6] is T3, RET (Homo sapiens, UniProt P07949).
T3 construct: kinase domain
The test can be described thus: KINOMEscan profiling at […]. Type of test: binding.

Test [7] concerns the target T4, KIT (Homo sapiens, UniProt P10721).
Target sequence in this assay (P10721 589-937 limits assumed): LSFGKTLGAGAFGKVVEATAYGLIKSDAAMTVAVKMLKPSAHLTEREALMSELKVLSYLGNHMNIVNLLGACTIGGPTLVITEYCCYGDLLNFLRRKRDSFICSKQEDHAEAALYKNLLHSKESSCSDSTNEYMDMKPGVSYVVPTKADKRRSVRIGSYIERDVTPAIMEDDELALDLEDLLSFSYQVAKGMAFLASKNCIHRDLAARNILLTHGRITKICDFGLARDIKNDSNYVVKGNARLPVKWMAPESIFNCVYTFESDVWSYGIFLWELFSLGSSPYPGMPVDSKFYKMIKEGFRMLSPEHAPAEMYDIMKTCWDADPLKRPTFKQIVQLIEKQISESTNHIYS
Test [8] has as its target TIE2 (Homo sapiens, UniProt Q02763). The test can be described thus: KINOMEscan profiling at […]. The format is binding. Set-up: gene TEK; kinase domain.
In test [9] the target is T5, ABL1-phosphorylated (Homo sapiens, UniProt P00519).
T5 construct: phosphorylated
T5 sequence (P00519 whole entry): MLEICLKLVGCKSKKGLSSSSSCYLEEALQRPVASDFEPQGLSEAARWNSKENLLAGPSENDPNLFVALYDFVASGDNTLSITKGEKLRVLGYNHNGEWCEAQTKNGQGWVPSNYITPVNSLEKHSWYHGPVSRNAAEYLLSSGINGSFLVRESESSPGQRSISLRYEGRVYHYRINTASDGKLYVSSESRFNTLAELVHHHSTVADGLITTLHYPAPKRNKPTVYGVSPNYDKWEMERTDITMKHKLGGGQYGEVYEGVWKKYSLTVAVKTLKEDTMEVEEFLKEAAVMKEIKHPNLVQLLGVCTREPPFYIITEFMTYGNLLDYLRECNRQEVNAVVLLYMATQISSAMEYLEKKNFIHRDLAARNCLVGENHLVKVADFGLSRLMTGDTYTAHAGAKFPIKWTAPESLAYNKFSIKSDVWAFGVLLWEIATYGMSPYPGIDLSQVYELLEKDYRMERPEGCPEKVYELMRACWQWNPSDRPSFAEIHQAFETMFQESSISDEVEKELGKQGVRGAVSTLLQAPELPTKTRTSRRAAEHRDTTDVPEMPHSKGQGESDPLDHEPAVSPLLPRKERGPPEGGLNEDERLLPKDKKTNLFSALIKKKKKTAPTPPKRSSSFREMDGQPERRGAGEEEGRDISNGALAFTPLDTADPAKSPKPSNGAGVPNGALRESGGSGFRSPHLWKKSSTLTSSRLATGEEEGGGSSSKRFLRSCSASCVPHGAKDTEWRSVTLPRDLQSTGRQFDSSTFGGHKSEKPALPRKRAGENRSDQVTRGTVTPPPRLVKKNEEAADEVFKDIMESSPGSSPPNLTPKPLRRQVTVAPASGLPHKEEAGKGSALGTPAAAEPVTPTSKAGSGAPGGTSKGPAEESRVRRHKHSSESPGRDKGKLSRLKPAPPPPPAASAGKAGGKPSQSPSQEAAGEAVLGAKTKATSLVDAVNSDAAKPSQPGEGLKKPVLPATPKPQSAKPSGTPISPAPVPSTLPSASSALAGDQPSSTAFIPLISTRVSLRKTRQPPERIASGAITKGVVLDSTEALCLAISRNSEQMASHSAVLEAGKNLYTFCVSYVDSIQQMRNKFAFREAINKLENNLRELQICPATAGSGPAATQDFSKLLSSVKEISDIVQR
Kind of test: biochemical. Set-up: KINOMEscan (DiscoverX) competition binding screen of 97 human kinases, percent of control at 10 uM. To be noted: binding competition, % of control; read-out: RU-301 %Ctrl @ 10000nM. How it is done:
as §1

For test [10], the target named is AXL (Homo sapiens, UniProt P30530). The test can be described thus: biochemical. Set-up: KINOMEscan (DiscoverX) competition binding screen of 97 human kinases, percent of control at 10 uM. Particulars: binding competition, % of control; read-out: RU-301 %Ctrl @ 10000nM. Here is the method:
as §1
Target sequence in this assay (P30530 whole entry): as the sequence (P30530 whole entry) above

Test [11] concerns the target T4, KIT. The test can be described thus: biochemical. Further details: KINOMEscan (DiscoverX) competition binding screen of 97 human kinases, percent of control at 10 uM. To be noted: binding competition, % of control; read-out: RU-301 %Ctrl @ 10000nM. Here is the method: as §1
Test [12] concerns the target FLT3 (Homo sapiens, UniProt P36888). The test can be described thus: biochemical. To be noted: binding competition, % of control; read-out: RU-301 %Ctrl @ 10000nM. Set-up: KINOMEscan (DiscoverX) competition binding screen of 97 human kinases, percent of control at 10 uM. How it is done: as §1
Target sequence in this assay (P36888 whole entry, the tested form may be a part): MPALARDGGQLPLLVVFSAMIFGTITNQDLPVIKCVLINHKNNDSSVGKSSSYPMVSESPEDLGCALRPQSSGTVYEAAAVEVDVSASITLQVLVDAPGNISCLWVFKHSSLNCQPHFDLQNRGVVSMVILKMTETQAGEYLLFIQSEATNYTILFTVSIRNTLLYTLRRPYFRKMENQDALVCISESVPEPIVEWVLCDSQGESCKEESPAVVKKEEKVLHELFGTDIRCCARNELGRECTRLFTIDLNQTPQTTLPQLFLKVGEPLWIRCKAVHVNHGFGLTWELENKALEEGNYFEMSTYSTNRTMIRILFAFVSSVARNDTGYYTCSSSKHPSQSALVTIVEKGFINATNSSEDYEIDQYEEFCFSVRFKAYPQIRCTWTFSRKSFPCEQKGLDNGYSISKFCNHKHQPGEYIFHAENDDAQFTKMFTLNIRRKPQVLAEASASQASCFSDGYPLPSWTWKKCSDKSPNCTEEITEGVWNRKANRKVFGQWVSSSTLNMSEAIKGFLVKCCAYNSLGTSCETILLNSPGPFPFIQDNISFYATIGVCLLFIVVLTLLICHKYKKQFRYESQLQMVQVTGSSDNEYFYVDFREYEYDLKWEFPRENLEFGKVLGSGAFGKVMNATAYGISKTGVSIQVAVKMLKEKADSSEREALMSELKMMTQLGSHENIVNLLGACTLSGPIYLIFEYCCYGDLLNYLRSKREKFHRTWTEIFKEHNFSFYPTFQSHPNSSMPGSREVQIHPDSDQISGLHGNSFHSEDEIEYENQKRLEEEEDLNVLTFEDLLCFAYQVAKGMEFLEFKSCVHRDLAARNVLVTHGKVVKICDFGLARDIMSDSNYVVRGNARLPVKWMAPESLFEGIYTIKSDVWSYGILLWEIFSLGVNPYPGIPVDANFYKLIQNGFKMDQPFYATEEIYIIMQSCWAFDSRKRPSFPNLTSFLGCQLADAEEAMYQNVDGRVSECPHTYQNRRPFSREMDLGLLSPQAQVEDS
The target in test [13] is T6, Axl (Homo sapiens, UniProt P30530+Q14393).
T6 construct: extracellular and trans-membrane domain of Axl fused to IFN-γR1 intracellular domain; with Gas6
The test can be described thus: Gas6-induced hAxl/IFN-γR1 CHO reporter (pSTAT1) inhibition; sAxl-Gas6 pull-down partially inhibited. Type of test: cell-based.

Sequence of VEGFR2 (P35968 789-1356 limits assumed): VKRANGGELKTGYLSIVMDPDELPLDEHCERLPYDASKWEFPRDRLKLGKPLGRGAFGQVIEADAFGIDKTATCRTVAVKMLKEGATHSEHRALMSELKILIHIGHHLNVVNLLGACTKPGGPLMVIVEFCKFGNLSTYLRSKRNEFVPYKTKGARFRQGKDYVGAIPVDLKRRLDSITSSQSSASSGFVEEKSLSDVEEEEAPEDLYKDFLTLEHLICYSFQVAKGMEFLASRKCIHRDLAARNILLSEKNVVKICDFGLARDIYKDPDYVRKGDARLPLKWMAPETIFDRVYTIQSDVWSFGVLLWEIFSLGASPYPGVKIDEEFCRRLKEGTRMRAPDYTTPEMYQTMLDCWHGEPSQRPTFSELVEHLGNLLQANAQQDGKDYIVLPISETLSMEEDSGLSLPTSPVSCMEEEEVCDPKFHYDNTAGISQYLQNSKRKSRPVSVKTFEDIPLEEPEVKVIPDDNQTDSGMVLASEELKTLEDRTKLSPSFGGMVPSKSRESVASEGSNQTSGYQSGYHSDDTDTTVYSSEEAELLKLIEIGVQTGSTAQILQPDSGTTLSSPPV

Regarding `Nc1nc(Nc2ccc3c(c2)CC[C@@H](N2CCCC2)CC3)nn1-c1cc2c(nn1)-c1ccccc1CCC2` [R428], the “KINOMEscan profiling at 10 uM” value in test [1] was “KIT, PDGFR A and B, RET, TIE2, VEGFR2, JAK2, JAK3 and FLT3 kinases”; in test [2], “R428 also bound to several other kinases, including Abl, Aurora kinases, KIT, PDGFR A and B”; in test [3], “R428 also bound to several other kinases, including Abl, Aurora kinases, KIT”; in test [4], “KIT, PDGFR A and B, RET, TIE2, VEGFR2, JAK2, JAK3 and FLT3 kinases”; in test [6], “R428 also bound to several other kinases, including Abl, Aurora kinases, KIT, PDGFR A and B, RET”; in [7], “R428 also bound to several other kinases, including Abl, Aurora kinases, KIT”. In addition, the “KINOMEscan profiling at 10 uM” value in test [8] is “KIT, PDGFR A and B, RET, TIE2, VEGFR2, JAK2, JAK3 and FLT3 kinases”. Also, in test [5], the “R428 %Ctrl @ 10000nM” value stood at 0.1%.
Regarding `Cc1cc(CSc2ccccc2C(=O)NCCNc2ccc(C(F)(F)F)cc2[N+](=O)[O-])on1` [RU-301], the remaining binding at 10 µM in test [9] came out at 81%; in [10] it was 89%; in test [11], 96%; in test [12], 99%. Further, the IC50 result in test [13] is “low micromolar”.
